From patent US7550469B2, “Heterocyclic amide derivatives and their use as dopamine D3 receptor ligands” (Aventis Pharmaceuticals Inc., priority 2001, dated 2009) come the findings set out here.

SMILES strings stand for the structures.

One assay concerns the target T1, cloned human alpha-1A adrenergic receptors (α1a) (Homo sapiens, UniProt P35348).
T1 construct: expressed in transfected cells; host or cells: CHO cells, G418-resistant clone, pcDNA3 vector; membrane fragments
T1 sequence (P35348 1-466): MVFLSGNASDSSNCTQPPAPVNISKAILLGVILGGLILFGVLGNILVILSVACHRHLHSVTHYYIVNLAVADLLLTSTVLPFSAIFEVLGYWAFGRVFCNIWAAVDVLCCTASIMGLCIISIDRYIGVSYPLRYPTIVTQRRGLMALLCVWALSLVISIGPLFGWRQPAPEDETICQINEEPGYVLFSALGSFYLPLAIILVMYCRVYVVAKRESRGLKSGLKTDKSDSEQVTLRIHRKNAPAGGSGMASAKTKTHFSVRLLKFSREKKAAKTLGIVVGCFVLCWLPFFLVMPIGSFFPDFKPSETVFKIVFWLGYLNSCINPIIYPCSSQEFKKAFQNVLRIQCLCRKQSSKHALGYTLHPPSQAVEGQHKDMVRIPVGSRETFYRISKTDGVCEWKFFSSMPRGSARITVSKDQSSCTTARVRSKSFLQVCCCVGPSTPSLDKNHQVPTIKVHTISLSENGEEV
The assay can be described thus: [3H]Prazosin binding to cloned human alpha-1A adrenergic receptors expressed in CHO cells. The following applies: Inh @ 1 uM. An excerpt:
^3H]PRAZOSIN BINDING TO CLONED HUMAN ALPHA-1A ADRENERGIC RECEPTORS (α1a) EXPRESSED IN CHINESE HAMSTER OVARY CELLS (CHO)
Purpose: This in vitro assay is designed as a screen to identify compounds displaying a affinity for the human α1a adrenoceptor subtype expressed in the membrane fragments of CHO cells. The assay measures the ability of the test compounds to displace [^3H] prazosin from α1a sites. • The identification of multiple vascular α1-addrenoceptors (α1a, α1b, α1d) in vitro has provided impetus to define the role(s) of these subtypes in cardiovascular regulation in vivo (Vargas and Gorman, 1995). […] Prazosin is a potent antagonist of the human α1a-adrenoceptor subtype, which has been cloned and is expressed in the membrane fragments of CHO cells. hα1a Receptor: The cloning of the human α1a cDNA was accomplished first by screening a human prostate cDNA library (Clontech), from which a portion of the coding region was obtained. This DNA fragment was then used to screen a human leukocyte genomic library (Clontech), and the rest of the coding sequence was obtained. Later these two fragments were spliced together. The entire coding sequence was then fully sequenced including matching PCR sequence with original genomic coding sequence, thus ensuring splice sites were joined correctly (Schwinn et al., 1995). Once sequenced, the gene was subcloned into the expression vector pcDNA3 (Invitrogen). Plasmid DNA was then used for transfection into CHO cells and G418 resistant clones were isolated. A clone expressing high levels of the hα1a receptor (as determined by mRNA and receptor binding data) was chosen and pharmacologically characterized. Culture Media: Media Ingredients for Adherent α1a expressing CHO Culture: • A. HAM's F-12 (Cellgro) • B. 10% 0.2 micron filtered Fetal Bovine Serum (FBS)(Cellgro) • C. 1% 0.2 micron filtered Penicillin-Streptomycin (Celigro) • D. G418 0.2 micron filtered (Geneticin 400 μg/ml)(Cellgro) • Cells are cultured using established methods and procedures in either 150×25 mm culture plates (scale up to 100 plates) or a combination of these plates and 70 roller bottles. One culturing/harvest cycle typically requires 2 weeks and yields between 100-400 mg protein. Plates or bottles are incubated at 37° C.+5% CO2. Storage: Cells are harvested by mechanical scraping, washed using PBS, collected in 250 ml Corning polypropylene centrifuge tubes, spun down (1500RPM) and resuspended in dH2O 10% DMSO (final volume per harvest is approximately 50 ml). Protein determination is made using the Biorad DC Assay Kit. Finally, the appropriate volume is aliquoted into a 2 ml Corning Cryovial (10 mg/1-1.5 ml) which is stored at −80° C. Current Lot Data:
Assay Requirement: 0.5 cryovials per 96 well plate (assay volume=200 μl/well) [^3H]-Ligand: [7-methoxy-^3H]-Prazosin: 1.0 nM (NEN, NET-823) • 70-87 Ci/mmol Materials: Phentolamine mesylate (Research Biochemicals Int. #P-131) • 96 well flat bottom plates (Beckman) • Unifilter GF/B Plate (Packard) • Polyethylenimine (Sigma #P-3134) • TomTec or Packard Filtermate 196 Cell Harvesters • Packard TopCount Scintillation Counter Buffers: A: 50 mM Tris HCl; 0.1% ascorbate, pH 7.7 (incubation buffer) • B: 50 mM Tris HCl; pH 7.7 (wash buffer) Procedure: Assay additions are as follows (in the order indicated): • Total Binding=50 μl buffer A+50 μl [^3H]prazosin+100 μl membrane • Nonsp. Bd.=50 μl 10 μM phentolamine+50 μl [^3H]prazosin+100 μl membrane • Test Cpd.=50 μl compound+50 μl [^3H]prazosin+100 μl membrane • Compounds to be evaluated are weighed out to yield a 10 mM stock solution in DMSO in a 24 well polystyrene plate. This is diluted to a 0.5 mM stock in dH2O. Serial dilutions in Buffer A are made from which 50 μl additions to the plate are made in duplicate in order to achieve the final concentrations desired. Typically, one 96 well plate is used to evaluate 11 compounds at 4 concentrations (10^−6-10^−9 M) in duplicate. […]
Take `O=C(NCCCCN1CCN(c2csc3cc(C(F)(F)F)ccc23)CC1)c1ccc(Cl)cc1` [compound 815548]: the “halpha 1 % I h = human” value was 27% Inh @ 1 uM.
Consider `O=C(NCCCCN1CCN(c2csc3cc(C(F)(F)F)ccc23)CC1)c1ccc(C(F)(F)F)cc1` [compound 815555], for which the “halpha 1 % I h = human” value was 24% Inh @ 1 uM.
The same measure, in the same setting: under `COc1ccccc1C(=O)NCCCCN1CCN(c2csc3cc(C(F)(F)F)ccc23)CC1` [compound 815554] stands 40% Inh @ 1 uM.

Staying with this assay, now noted: Inh @ 10 uM.
For `O=C(NCCCCN1CCN(c2csc3cc(C(F)(F)F)ccc23)CC1)c1ccc(-c2ccccc2)cc1` [815547A], the “halpha 1 % I h = human” value worked out at 18.7% @ 10 uM.
For `CCOc1ccc(C(=O)NCCCCN2CCN(c3csc4cc(C(F)(F)F)ccc34)CC2)cc1` [compound 815541], the “halpha 1 % I h = human” value is 48% Inh @ 10 uM.
As for `CCCCOc1ccc(C(=O)NCCCCN2CCN(c3csc4cc(C(F)(F)F)ccc34)CC2)cc1` [compound 815545], the “halpha 1 % I h = human” value amounted to 25% Inh @ 10 uM.

The same assay, now with this note: h = human; piperazines (n = 1) vs homopiperazines (n = 2); read-out: h-α1 Ki.
Broadly, the Ki is the equilibrium dissociation constant of an inhibitor or competing ligand from its target. Take `O=C(NCCCCN1CCCN(c2csc3cc(F)ccc23)CC1)c1ccc2ccccc2c1` [822223G]: the Ki is 123 nM.
Turning to `CC(C)(C)c1ccc(C(=O)NCCCCN2CCCN(c3csc4cc(F)ccc34)CC2)cc1` [compound 822198], the Ki worked out at 209 nM.
The same measure, in the same setting: under `O=C(NCCCCN1CCCN(c2csc3cc(F)ccc23)CC1)c1ccco1` [S981843] stands 5.6 nM.
With `O=C(NCCCCN1CCCN(c2csc3cc(F)ccc23)CC1)c1cc2ccccc2s1` [822224G], the Ki turned out to be 82.5 nM.
`O=C(NCCCCN1CCCN(c2csc3cc(F)ccc23)CC1)c1cccc(F)c1` [compound 822154]: the Ki came to 41.8 nM.
Same read-out and setting: under `O=C(NCCCCN1CCCN(c2csc3cc(F)ccc23)CC1)c1ccc(OC(F)(F)F)cc1` [compound 822152] stands 122 nM; under `COc1ccccc1C(=O)NCCCCN1CCCN(c2csc3cc(F)ccc23)CC1` [compound 822157], 27.4 nM.

Staying with this assay, now noted: human α-1; 6-fluoro vs 6-trifluoromethyl benzo[b]thiophene pairs; read-out: halpha 1 Ki (nM) h = human.
Turning to `CCOc1ccc(C(=O)NCCCCN2CCN(c3csc4cc(C(F)(F)F)ccc34)CC2)cc1` [compound 815541], the Ki amounted to 1110 nM.
Consider `O=C(NCCCCN1CCN(c2csc3cc(C(F)(F)F)ccc23)CC1)c1c(F)cccc1F` [compound 815557], for which the Ki was 72 nM.
Turning to `O=C(NCCCCN1CCN(c2csc3cc(C(F)(F)F)ccc23)CC1)c1ccc2c(c1)OCO2` [compound 815544], the Ki was determined as 62 nM.
On the same count and under the same terms, with `O=C(NCCCCN1CCN(c2csc3cc(C(F)(F)F)ccc23)CC1)c1sc2ccccc2c1Cl` [compound 815546] the figure was 59 nM; with `O=C(NCCCCN1CCN(c2csc3cc(C(F)(F)F)ccc23)CC1)c1cc2ccccc2s1` [814238A], 78.3 nM.
Same read-out and setting: under `O=C(NCCCCN1CCN(c2csc3cc(C(F)(F)F)ccc23)CC1)c1ccc(F)cc1F` [compound 815542] stands 68 nM; under `O=C(NCCCCN1CCN(c2csc3cc(C(F)(F)F)ccc23)CC1)c1ccc(Br)cc1` [compound 815551], 80 nM.
Same read-out and setting: with `O=C(NCCCCN1CCN(c2csc3cc(C(F)(F)F)ccc23)CC1)c1ccco1` [compound 815556] the figure was 12 nM.
